target: T1, ligand binding domain of human RORγ (A262-S507) (Homo sapiens, UniProt P51449); experiment: General RORγ SPA binding assay (competition with [3H]25-hydroxycholesterol); details: IC50, RORγ SPA binding assay, inhibition of [3H]25-hydroxycholesterol binding
T1 construct: made in house; host or cells: E. coli
T1 sequence (P51449 262-507): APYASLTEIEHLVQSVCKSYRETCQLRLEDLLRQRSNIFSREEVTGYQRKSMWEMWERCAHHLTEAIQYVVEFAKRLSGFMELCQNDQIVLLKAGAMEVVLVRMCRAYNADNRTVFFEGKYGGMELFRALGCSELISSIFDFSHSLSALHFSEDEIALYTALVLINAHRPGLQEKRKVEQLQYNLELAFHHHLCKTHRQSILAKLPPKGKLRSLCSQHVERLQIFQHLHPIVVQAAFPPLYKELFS
Method in brief: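 Scintillation counts from copper His-tag SPA beads (4 mg/mL, 30 min) gave percent inhibition of radioligand binding, from which IC50 values are derived. The E. coli-expressed His-tagged domain (50 nM) is first exposed to compound for 15 min at room temperature in PBS containing 0.5% fatty acid free BSA.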

Row | SMILES | IC50
1 | Nc1ncc(C(=O)COc2cccc(C(F)(F)F)n2)c(C2CCN(C(=O)Oc3ccccc3F)CC2)n1 [Compound M14, 2-Fluorophenyl 4-[2-amino-5-({[6-(trifluoromethyl)pyridin-2-yl]oxy}acetyl)pyrimidin-4-yl]piperidine-1-carboxylate] | 485 nM

same assay, conditions: RORγ SPA binding assay, inhibition of [3H]25-hydroxycholesterol binding; read-out: IC50

Row | SMILES | IC50
2 | Cc1nc(N)nc(C2CCN(C(=O)Nc3c(F)cccc3F)CC2)c1C(=O)COc1cccc(C(F)(F)F)n1 [Compound M11, 4-[2-Amino-6-methyl-5-({[6-(trifluoromethyl)pyridin-2-yl]oxy}acetyl)pyrimidin-4-yl]-N-(2,6-difluorophenyl)piperidine-1-carboxamide] | 2.8 nM
3 | CC(=O)Nc1nc(C)c(C(=O)COc2cccc(C(F)(F)F)n2)c(C2CCN(C(=O)Nc3c(F)cccc3F)CC2)n1 [Compound M12, 4-[2-(Acetylamino)-6-methyl-5-({[6-(trifluoromethyl)pyridin-2-yl]oxy}acetyl)pyrimidin-4-yl]-N-(2,6-difluorophenyl)piperidine-1-carboxamide] | 6.2 nM
4 | Nc1ncc(C(=O)COc2ccnc(C(F)(F)F)n2)c(C2CCN(C(=O)c3c(F)cccc3F)CC2)n1 [Compound M13, 1-(2-Amino-4-{1-[(2,6-difluorophenyl)carbonyl]piperidin-4-yl}pyrimidin-5-yl)-2-{[2-(trifluoromethyl)pyrimidin-4-yl]oxy}ethanone] | 344 nM
5 | Cc1ncc(C(O)COc2cccc(C(F)(F)F)n2)c(C2CCN(C(=O)Nc3c(F)cccc3F)CC2)n1 (centres unmarked) [Compound N1, N-(2,6-Difluorophenyl)-4-[5-(1-hydroxy-2-{[6-(trifluoromethyl)pyridin-2-yl]oxy}ethyl)-2-methylpyrimidin-4-yl]piperidine-1-carboxamide] | 6.6 nM
6 | Nc1ncc(C(O)COc2ccnc(C(F)(F)F)n2)c(C2CCN(C(=O)Nc3c(F)cccc3F)CC2)n1 (centres unmarked) [Compound N2, 4-[2-Amino-5-(1-hydroxy-2-{[2-(trifluoromethyl)pyrimidin-4-yl]oxy}ethyl)pyrimidin-4-yl]-N-(2,6-difluorophenyl)piperidine-1-carboxamide] | 19.5 nM
7 | Nc1ncc(C(O)COc2cccc(C(F)(F)F)n2)c(C2CCN(C(=O)Nc3c(F)cccc3F)CC2)n1 (centres unmarked) [Compound N3, 4-[2-Amino-5-(1-hydroxy-2-{[6-(trifluoromethyl)pyridin-2-yl]oxy}ethyl)pyrimidin-4-yl]-N-(2,6-difluorophenyl)piperidine-1-carboxamide] | 2.3 nM
8 | COc1ncc(C(O)COc2cccc(C(F)(F)F)n2)c(C2CCN(C(=O)Nc3c(F)cccc3F)CC2)n1 (centres unmarked) [Compound N4, N-(2,6-Difluorophenyl)-4-[5-(1-hydroxy-2-{[6-(trifluoromethyl)pyridin-2-yl]oxy}ethyl)-2-(methyloxy)pyrimidin-4-yl]piperidine-1-carboxamide] | 12.1 nM
9 | Cc1nc(C)c(C(O)COc2ccnc(C(F)(F)F)n2)c(C2CCN(C(=O)Nc3c(F)cccc3F)CC2)n1 (centres unmarked) [Compound N5, N-(2,6-Difluorophenyl)-4-[5-(1-hydroxy-2-{[2-(trifluoromethyl)pyrimidin-4-yl]oxy}ethyl)-2,6-dimethylpyrimidin-4-yl]piperidine-1-carboxamide] | 8.4 nM
10 | Cc1nc(C)c(C(O)COc2cccc(C(F)(F)F)n2)c(C2CCN(C(=O)Nc3c(F)cccc3F)CC2)n1 (centres unmarked) [Compound N6, N-(2,6-Difluorophenyl)-4-[5-(1-hydroxy-2-{[6-(trifluoromethyl)pyridin-2-yl]oxy}ethyl)-2,6-dimethylpyrimidin-4-yl]piperidine-1-carboxamide] | 4 nM
11 | Cc1nc(N)nc(C2CCN(C(=O)Nc3c(F)cccc3F)CC2)c1C(O)COc1ccnc(C(F)(F)F)n1 (centres unmarked) [Compound N7, 4-[2-amino-5-(1-hydroxy-2-{[2-(trifluoromethyl)pyrimidin-4-yl]oxy}ethyl)-6-methylpyrimidin-4-yl]-N-(2,6-difluorophenyl)piperidine-1-carboxamide] | 16.9 nM
12 | COc1nc(C)c(C(O)COc2ccnc(C(F)(F)F)n2)c(C2CCN(C(=O)Nc3c(F)cccc3F)CC2)n1 (centres unmarked) [Compound N8, N-(2,6-Difluorophenyl)-4-[5-(1-hydroxy-2-{[2-(trifluoromethyl)pyrimidin-4-yl]oxy}ethyl)-6-methyl-2-(methyloxy)pyrimidin-4-yl]piperidine-1-carboxamide] | 4.8 nM
13 | Cc1nc(N)nc(C2CCN(C(=O)Nc3c(F)cccc3F)CC2)c1C(O)COc1cccc(C(F)(F)F)n1 (centres unmarked) [Compound N9, 4-[2-Amino-5-(1-hydroxy-2-{[6-(trifluoromethyl)pyridin-2-yl]oxy}ethyl)-6-methylpyrimidin-4-yl]-N-(2,6-difluorophenyl)piperidine-1-carboxamide] | 4.2 nM
14 | CC(=O)Nc1nc(C)c(C(O)COc2cccc(C(F)(F)F)n2)c(C2CCN(C(=O)Nc3c(F)cccc3F)CC2)n1 (centres unmarked) [Compound N10, 4-[2-(Acetylamino)-5-(1-hydroxy-2-{1-[6-(trifluoromethyl)pyridin-2-yl]oxy}ethyl)-6-methylpyrimidin-4-yl]-N-(2,6-difluorophenyl)piperidine-1-carboxamide] | 20.9 nM
15 | CC(=O)Nc1nc(C)c(C(COc2cccc(C(F)(F)F)n2)OC(C)=O)c(C2CCN(C(=O)Nc3c(F)cccc3F)CC2)n1 (centres unmarked) [Compound N11, 1-[2-(Acetylamino)-4-(1-{[(2,6-difluorophenyl)amino]carbonyl}piperidin-4-yl)-6-methylpyrimidin-5-yl]-2-{[6-(trifluoromethyl)pyridin-2-yl]oxy}ethyl acetate] | 37 nM
16 | Nc1ncc(C(O)CNc2ccnc(C(F)(F)F)n2)c(C2CCN(C(=O)Nc3c(F)cccc3F)CC2)n1 (centres unmarked) [Compound N12, 4-[2-amino-5-(1-hydroxy-2-{[2-(trifluoromethyl)pyrimidin-4-yl]amino}ethyl)pyrimidin-4-yl]-N-(2,6-difluorophenyl)piperidine-1-carboxamide] | 69.5 nM
17 | Nc1ncc(C(O)COc2ccnc(C(F)(F)F)n2)c(C2CCN(C(=O)Oc3c(F)cccc3F)CC2)n1 (centres unmarked) [Compound N13, 2,6-Difluorophenyl 4-[2-amino-5-(1-hydroxy-2-{[2-(trifluoromethyl)pyrimidin-4-yl]oxy}ethyl)pyrimidin-4-yl]piperidine-1-carboxylate] | 6.8 nM
18 | Cc1ncc(C(F)(F)COc2cccc(C(F)(F)F)n2)c(C2CCN(C(=O)Nc3c(F)cccc3F)CC2)n1 [Compound N14, N-(2,6-Difluorophenyl)-4-[5-(1,1-difluoro-2-{[6-(trifluoromethyl)pyridin-2-yl]oxy}ethyl)-2-methylpyrimidin-4-yl]piperidine-1-carboxamide] | 4.1 nM
19 | Cc1ncc(C(F)(F)COc2cccc(C(F)(F)F)n2)c(C2CCN(C(=O)Nc3c(F)cccc3C(F)(F)F)CC2)n1 [Compound N15, 4-[5-(1,1-Difluoro-2-{[6-(trifluoromethyl)pyridin-2-yl]oxy}ethyl)-2-methylpyrimidin-4-yl]-N-[2-fluoro-6-(trifluoromethyl)phenyl]piperidine-1-carboxamide] | 10.9 nM
20 | Nc1ncc(C(F)(F)COc2ccnc(C(F)(F)F)n2)c(C2CCN(C(=O)Nc3c(F)cccc3F)CC2)n1 [Compound N17, 4-[2-Amino-5-(1,1-difluoro-2-{[2-(trifluoromethyl)pyrimidin-4-yl]oxy}ethyl)pyrimidin-4-yl]-N-(2,6-difluorophenyl)piperidine-1-carboxamide] | 6.2 nM
21 | Cc1ncc(C(F)(F)CNc2ccnc(C(F)(F)F)n2)c(C2CCN(C(=O)Nc3c(F)cccc3F)CC2)n1 [Compound N18, N-(2,6-Difluorophenyl)-4-[5-(1,1-difluoro-2-{[2-(trifluoromethyl)pyrimidin-4-yl]amino}ethyl)-2-methylpyrimidin-4-yl]piperidine-1-carboxamide] | 16.2 nM
22 | Cc1ncc(C(F)(F)CNc2ccnc(C(F)(F)F)n2)c(C2CCN(C(=O)Cc3c(F)cccc3F)CC2)n1 [Compound N19, N-[2-(4-{1-[(2,6-Difluorophenyl)acetyl]piperidin-4-yl}-2-methylpyrimidin-5-yl)-2,2-difluoroethyl]-2-(trifluoromethyl)pyrimidin-4-amine] | 6.5 nM
23 | Cc1ncc(C(F)(F)CNc2nccc(C(F)(F)F)n2)c(C2CCN(C(=O)Nc3c(F)cccc3F)CC2)n1 [Compound N20, N-(2,6-Difluorophenyl)-4-[5-(1,1-difluoro-2-{[4-(trifluoromethyl)pyrimidin-2-yl]amino}ethyl)-2-methylpyrimidin-4-yl]piperidine-1-carboxamide] | 21.2 nM
24 | Cc1ncc(C(F)(F)CNc2nccc(C(F)(F)F)n2)c(C2CCN(C(=O)Cc3c(F)cccc3F)CC2)n1 [Compound N21, N-[2-(4-{1-[(2,6-Difluorophenyl)acetyl]piperidin-4-yl}-2-methylpyrimidin-5-yl)-2,2-difluoroethyl]-4-(trifluoromethyl)pyrimidin-2-amine] | 14.2 nM
25 | Cc1ncc(C(F)COc2cccc(C(F)(F)F)n2)c(C2CCN(C(=O)Nc3c(F)cccc3F)CC2)n1 (centres unmarked) [Compound N22, N-(2,6-Difluorophenyl)-4-[5-(1-fluoro-2-{[6-(trifluoromethyl)pyridin-2-yl]oxy}ethyl)-2-methylpyrimidin-4-yl]piperidine-1-carboxamide] | 7 nM
26 | Cc1ncc(C(N)COc2cccc(C(F)(F)F)n2)c(C2CCN(C(=O)Nc3c(F)cccc3F)CC2)n1 (centres unmarked) [Compound N23, 4-[5-(1-Amino-2-{[6-(trifluoromethyl)pyridin-2-yl]oxy}ethyl)-2-methylpyrimidin-4-yl]-N-(2,6-difluorophenyl)piperidine-1-carboxamide] | 12.3 nM
